Source: PubChem BioAssay (NCI)
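Assay format: 96-well plates, 48-hour exposure. The concentration for full growth arrest is given as TGI.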

Tests used:
Experiment in all cases: inhibition of tumour cell growth, NCI panel, 48 h
786-0 renal = tested on: 786-0 renal
A498 renal = tested on: A498 renal
A549 NSCLC = tested on: A549 NSCLC
ACHN renal = tested on: ACHN renal
BT-549 breast = tested on: BT-549 breast
CAKI-1 renal = tested on: CAKI-1 renal
CCRF-CEM leukemia = tested on: CCRF-CEM leukemia
COLO 205 colon = tested on: COLO 205 colon
DU-145 prostate = tested on: DU-145 prostate
EKVX NSCLC = tested on: EKVX NSCLC
HCC-2998 colon = tested on: HCC-2998 colon
HCT-116 colon = tested on: HCT-116 colon
HCT-15 colon = tested on: HCT-15 colon
HL-60(TB) leukemia = tested on: HL-60(TB) leukemia
HOP-62 NSCLC = tested on: HOP-62 NSCLC
HS 578T breast = tested on: HS 578T breast
HT29 colon = tested on: HT29 colon
IGROV1 ovarian = tested on: IGROV1 ovarian
K-562 leukemia = tested on: K-562 leukemia
KM12 colon = tested on: KM12 colon
LOX IMVI melanoma = tested on: LOX IMVI melanoma
M14 melanoma = tested on: M14 melanoma
MALME-3M melanoma = tested on: MALME-3M melanoma
MCF7 breast = tested on: MCF7 breast
MDA-MB-231 breast = tested on: MDA-MB-231 breast
MDA-MB-435 = tested on: MDA-MB-435
MDA-N = tested on: MDA-N
MOLT-4 leukemia = tested on: MOLT-4 leukemia
NCI-H226 lung = tested on: NCI-H226 lung
NCI-H23 lung = tested on: NCI-H23 lung
NCI-H522 lung = tested on: NCI-H522 lung
NCI/ADR-RES ovarian = tested on: NCI/ADR-RES ovarian
OVCAR-3 ovarian = tested on: OVCAR-3 ovarian
OVCAR-4 ovarian = tested on: OVCAR-4 ovarian
OVCAR-5 ovarian = tested on: OVCAR-5 ovarian
OVCAR-8 ovarian = tested on: OVCAR-8 ovarian
PC-3 prostate = tested on: PC-3 prostate
RPMI-8226 leukemia = tested on: RPMI-8226 leukemia
RXF 393 renal = tested on: RXF 393 renal
SF-268 CNS = tested on: SF-268 CNS
SF-295 CNS = tested on: SF-295 CNS
SF-539 CNS = tested on: SF-539 CNS
SK-MEL-2 melanoma = tested on: SK-MEL-2 melanoma
SK-MEL-28 melanoma = tested on: SK-MEL-28 melanoma
SK-MEL-5 melanoma = tested on: SK-MEL-5 melanoma
SK-OV-3 ovarian = tested on: SK-OV-3 ovarian
SN12C renal = tested on: SN12C renal
SNB-19 CNS = tested on: SNB-19 CNS
SNB-75 CNS = tested on: SNB-75 CNS
SR leukemia = tested on: SR leukemia
SW-620 colon = tested on: SW-620 colon
T-47D breast = tested on: T-47D breast
TK-10 renal = tested on: TK-10 renal
U251 CNS = tested on: U251 CNS
UACC-257 melanoma = tested on: UACC-257 melanoma
UACC-62 melanoma = tested on: UACC-62 melanoma
UO-31 renal = tested on: UO-31 renal
HOP-92 NSCLC = tested on: HOP-92 NSCLC
NCI-H460 lung = tested on: NCI-H460 lung

Compound: O=C([C@H](O)[C@@H](O)c1cccc(Cl)c1)C12CC3CC(CC(C3)C1)C2
- TGI (786-0 renal): 3.3 µM
- TGI (A498 renal): 5.46 µM
- TGI (A549 NSCLC): 5.25 µM
- TGI (ACHN renal): 3.56 µM
- TGI (BT-549 breast): 3.74 µM
- TGI (CAKI-1 renal): 3.98 µM
- TGI (CCRF-CEM leukemia): > 100 µM
- TGI (COLO 205 colon): 4.23 µM
- TGI (DU-145 prostate): 5.08 µM
- TGI (EKVX NSCLC): 4.38 µM
- TGI (HCC-2998 colon): 4.15 µM
- TGI (HCT-116 colon): 6.79 µM
- TGI (HCT-15 colon): 6.62 µM
- TGI (HL-60(TB) leukemia): 3.79 µM
- TGI (HOP-62 NSCLC): 7.9 µM
- TGI (HS 578T breast): 6.48 µM
- TGI (HT29 colon): 6.17 µM
- TGI (IGROV1 ovarian): 2.68 µM
- TGI (K-562 leukemia): > 100 µM
- TGI (KM12 colon): 6.01 µM
- TGI (LOX IMVI melanoma): 2.65 µM
- TGI (M14 melanoma): 7.16 µM
- TGI (MALME-3M melanoma): 18.2 µM
- TGI (MCF7 breast): 2.77 µM
- TGI (MDA-MB-231 breast): 5.44 µM
- TGI (MDA-MB-435): 8.46 µM
- TGI (MDA-N): 5.92 µM
- TGI (MOLT-4 leukemia): > 100 µM
- TGI (NCI-H226 lung): 12.3 µM
- TGI (NCI-H23 lung): 3.84 µM
- TGI (NCI-H522 lung): 5.04 µM
- TGI (NCI/ADR-RES ovarian): 5.52 µM
- TGI (OVCAR-3 ovarian): 4.37 µM
- TGI (OVCAR-4 ovarian): 7.49 µM
- TGI (OVCAR-5 ovarian): 8.79 µM
- TGI (OVCAR-8 ovarian): 4.69 µM
- TGI (PC-3 prostate): 4.05 µM
- TGI (RPMI-8226 leukemia): > 22.7 µM
- TGI (RXF 393 renal): 3.98 µM
- TGI (SF-268 CNS): 4.04 µM
- TGI (SF-295 CNS): 11.4 µM
- TGI (SF-539 CNS): 3.61 µM
- TGI (SK-MEL-2 melanoma): 4.24 µM
- TGI (SK-MEL-28 melanoma): 12.6 µM
- TGI (SK-MEL-5 melanoma): 14.8 µM
- TGI (SK-OV-3 ovarian): 22.8 µM
- TGI (SN12C renal): 3.95 µM
- TGI (SNB-19 CNS): 4.07 µM
- TGI (SNB-75 CNS): 3.7 µM
- TGI (SR leukemia): > 100 µM
- TGI (SW-620 colon): > 45 µM
- TGI (T-47D breast): 4.21 µM
- TGI (TK-10 renal): 3.69 µM
- TGI (U251 CNS): 2.98 µM
- TGI (UACC-257 melanoma): 4.8 µM
- TGI (UACC-62 melanoma): 3.32 µM
- TGI (UO-31 renal): 3.83 µM

Compound: C/C=C(\C)C(=O)OC1/C=C(\C)CC/C=C(\C)CC2OC(=O)C(C)(OC(C)=O)C12 (stereo unspecified)
- TGI (786-0 renal): > 100 µM
- TGI (A498 renal): > 100 µM
- TGI (A549 NSCLC): > 100 µM
- TGI (ACHN renal): > 100 µM
- TGI (BT-549 breast): > 100 µM
- TGI (CAKI-1 renal): > 100 µM
- TGI (CCRF-CEM leukemia): > 100 µM
- TGI (COLO 205 colon): > 100 µM
- TGI (DU-145 prostate): > 100 µM
- TGI (EKVX NSCLC): > 100 µM
- TGI (HCC-2998 colon): > 100 µM
- TGI (HCT-116 colon): > 100 µM
- TGI (HCT-15 colon): > 100 µM
- TGI (HL-60(TB) leukemia): > 100 µM
- TGI (HOP-62 NSCLC): > 100 µM
- TGI (HOP-92 NSCLC): > 100 µM
- TGI (HS 578T breast): > 100 µM
- TGI (HT29 colon): > 100 µM
- TGI (IGROV1 ovarian): > 100 µM
- TGI (K-562 leukemia): > 100 µM
- TGI (KM12 colon): > 100 µM
- TGI (LOX IMVI melanoma): > 100 µM
- TGI (M14 melanoma): > 100 µM
- TGI (MALME-3M melanoma): > 100 µM
- TGI (MCF7 breast): > 100 µM
- TGI (MDA-MB-231 breast): > 100 µM
- TGI (MDA-MB-435): > 100 µM
- TGI (MDA-N): > 100 µM
- TGI (MOLT-4 leukemia): > 100 µM
- TGI (NCI-H226 lung): > 100 µM
- TGI (NCI-H23 lung): > 100 µM
- TGI (NCI-H460 lung): > 100 µM
- TGI (NCI-H522 lung): > 100 µM
- TGI (NCI/ADR-RES ovarian): > 100 µM
- TGI (OVCAR-3 ovarian): > 100 µM
- TGI (OVCAR-4 ovarian): > 100 µM
- TGI (OVCAR-5 ovarian): > 100 µM
- TGI (OVCAR-8 ovarian): > 100 µM
- TGI (PC-3 prostate): > 100 µM
- TGI (RPMI-8226 leukemia): > 100 µM
- TGI (RXF 393 renal): > 100 µM
- TGI (SF-268 CNS): > 100 µM
- TGI (SF-295 CNS): > 100 µM
- TGI (SF-539 CNS): > 100 µM
- TGI (SK-MEL-2 melanoma): > 100 µM
- TGI (SK-MEL-28 melanoma): > 100 µM
- TGI (SK-MEL-5 melanoma): > 100 µM
- TGI (SK-OV-3 ovarian): > 100 µM
- TGI (SN12C renal): > 100 µM
- TGI (SNB-19 CNS): > 100 µM
- TGI (SNB-75 CNS): > 100 µM
- TGI (SR leukemia): > 100 µM
- TGI (SW-620 colon): > 100 µM
- TGI (T-47D breast): > 100 µM
- TGI (TK-10 renal): > 100 µM
- TGI (U251 CNS): > 100 µM
- TGI (UACC-257 melanoma): > 100 µM
- TGI (UACC-62 melanoma): > 100 µM

Compound: Cn1c(=O)cc(NNc2ccc(Cl)c(Cl)c2)[nH]c1=O
- TGI (786-0 renal): 25.9 µM
- TGI (A498 renal): > 100 µM
- TGI (A549 NSCLC): 36 µM
- TGI (ACHN renal): 19.9 µM
- TGI (BT-549 breast): 29.9 µM
- TGI (CAKI-1 renal): 27.3 µM
- TGI (CCRF-CEM leukemia): 37.3 µM
- TGI (COLO 205 colon): 35.8 µM
- TGI (DU-145 prostate): > 100 µM
- TGI (EKVX NSCLC): 24.2 µM
- TGI (HCC-2998 colon): 16.6 µM
- TGI (HCT-116 colon): 20.5 µM
- TGI (HCT-15 colon): 18.5 µM
- TGI (HL-60(TB) leukemia): 91 µM
- TGI (HOP-62 NSCLC): 31.3 µM
- TGI (HOP-92 NSCLC): 28.5 µM
- TGI (HS 578T breast): 56 µM
- TGI (HT29 colon): 40.9 µM
- TGI (IGROV1 ovarian): 23.5 µM
- TGI (K-562 leukemia): 23.1 µM
- TGI (KM12 colon): 30.2 µM
- TGI (LOX IMVI melanoma): 28.1 µM
- TGI (M14 melanoma): 20.3 µM
- TGI (MCF7 breast): 21.4 µM
- TGI (MDA-MB-231 breast): 23.9 µM
- TGI (MDA-MB-435): 14.1 µM
- TGI (MDA-N): 23.3 µM
- TGI (MOLT-4 leukemia): 58.2 µM
- TGI (NCI-H226 lung): 55.9 µM
- TGI (NCI-H23 lung): 90.7 µM
- TGI (NCI-H460 lung): 20.3 µM
- TGI (NCI/ADR-RES ovarian): 64.1 µM
- TGI (OVCAR-3 ovarian): 28.8 µM
- TGI (OVCAR-4 ovarian): 28.3 µM
- TGI (OVCAR-5 ovarian): 31.5 µM
- TGI (OVCAR-8 ovarian): 31 µM
- TGI (PC-3 prostate): 25.4 µM
- TGI (RXF 393 renal): 38.8 µM
- TGI (SF-268 CNS): 75.9 µM
- TGI (SF-295 CNS): 43.2 µM
- TGI (SF-539 CNS): 39.7 µM
- TGI (SK-MEL-2 melanoma): 33.6 µM
- TGI (SK-MEL-28 melanoma): 25.1 µM
- TGI (SK-MEL-5 melanoma): 19.3 µM
- TGI (SK-OV-3 ovarian): > 100 µM
- TGI (SN12C renal): 21.2 µM
- TGI (SNB-19 CNS): > 100 µM
- TGI (SNB-75 CNS): 48.4 µM
- TGI (SR leukemia): > 100 µM
- TGI (SW-620 colon): 21.1 µM
- TGI (T-47D breast): 21.1 µM
- TGI (TK-10 renal): 30.6 µM
- TGI (U251 CNS): 24.8 µM
- TGI (UACC-257 melanoma): 28.6 µM
- TGI (UACC-62 melanoma): 16.8 µM
- TGI (UO-31 renal): 24.4 µM
